# Data as given in US7125695B2, “Directed evolution of microorganisms” (Genencor International, Inc., priority 1999, dated 2006).
# B1: Escherichia blattae 1,3-propanediol dehydrogenase (PDD, dhaT), wild type, strain ATCC 33429 (Shimwellia blattae) (protein)
# chain: MSDRMYDFLVPNVNFFGPGAVSVVGQRCQLLGGKKALLVTDKGLRAIKDGAVDQTVKHLKAAGIEVVIFDGVEPNPKDTNVLDGLAMFRKEQCDMIITVGGGSPHDCGKGIGIAATHPGDLYSYAGIETLTNPLPPIIAVNTTAGTASEVTRHCVLTNTKTKVKFVIVSWRNLPSVSINDPLLMIGKPAGLTAATGMDALTHAVEAYISKDANPVTDASAIQAIKLIATNLRQAVALGTNLKARENMACASLLAGMAFNNANLGYVHAMAHQLGGLYDMAHGVANAVLLPHVCRYNLIANPEKFADIATFMGENTTGLSTMDAAELAISAIARLSKDVGIPQHLRELGVKEADFPYMAEMALKDGNAFSNPRKGNEKEIADIFRQAF
# notes: no tag
# Key:
# [1] = biological target: T1, Escherichia blattae 1,3-propanediol dehydrogenase (PDD, dhaT), mutant PDD from evolved strain GEB031 (ATCC PTA-92), SEQ ID NO:4 (Shimwellia blattae, UniProt Q3ZL59, H105L); assay: PDD comparison, 1,3-propanediol dehydrogenase from evolved strain GEB031; format: biochemical, Escherichia blattae GEB031 (ATCC PTA-92); settings: PDD from evolved strain GEB031, compared with wild type E. blattae
# T1 construct: no tag
# Experimental: (§1) Strains—Wild type ATCC 33429, E. blattae comprising the mutant PDD as described in Example 4 and having ATCC accession number PTA-92.
# (§2) Growth—Cells were grown in a complex medium at 30C 500 ml in a 2800 ml fernbach with shaking at 225 rpm for 20 hr. The medium consists of KH2PO4, 5.4 g/L; (NH4)2SO4, 1.2 g/L; MgSO47H2O, 0.4 g/L; yeast extract, 2.0 g/L; tryptone, 2.0 g/L; and glycerol, 9.2 g/L in tap water. The pH was adjusted to 7.1 with KOH before autoclaving (Honda, et al., 1980, J. Bacteriol, 143:1458–1465).
# (§3) Extract prep—Cells were harvested by centrifugation with care to avoid anaerobic conditions. Pellets were resuspended in 100 mM Tricine pH 8.2 containing 50 mM KCl and 1 mM DTT. Cells were disrupted by passage through a French pressure cell. Crude extracts were clarified by centrifugation at 20K×g for 20 min followed by 100K×g for 1 hr to yield the high speed supernatant (HSS) fraction.
# (§4) Assays—the assay for PDD was performed as described by Johnson, E. A. et al., 1987, J. Bacteriol. 169:2050–2054.
# (§5) Partial purification of PDD—HSS was separated on a 16×100 Poros 20HQ column. The buffers were A, 50 mM HEPES, pH 7.4 containing 100 uM MnCl and B, A buffer containing 500 mM KCl. The column was loaded and developed at 10 ml/min. The gradient was 10 CV wash, a linear gradient to 70% B in 10 CV, and 1 CV to 100% B. The activity was detected in the very early fractions of the gradient. […]
# wild-type E. blattae = assay: Viability (plate counts) of wild-type E. blattae during glycerol fermentation with accumulation of 3HPA; format: cell-based, Escherichia blattae ATCC 33429; settings: anaerobic glycerol fermentation, 30° C., 3HPA accumulated to 50 mM
# Experimental: FIG. 5—Glycerol fermentation of E. blattae at pH 7.0. Culture conditions are described in the text. Plate counts were by serial dilution and performed in triplicate on Luria agar plates. Substrate and 0products were measured by HPLC.
# The wild-type E. blattae and the evolved E. blattae were subjected to fermentation in the following medium: 75 g glycerol, 5 g K2HPO4.3H2O, 3 g KH2PO4, 2 g (NH4)2SO4, 0.4 g MgSO4.7H2O, 0.2 g CaCl2.2H2O, 4 mg CoCl2.2H2O, 2 g yeast extract, and 1 g peptone per liter water. The pH was maintained with 20% NaOH. Both fermentations were run at 30° C. with a N2 sparge and were inoculated with a stationary grown overnight preculture.
# The wild-type E. blattae accumulated 3HPA and stopped growing and metabolizing glycerol. The accumulation of 3HPA was high and reached 50 mM. […] After the culture had consumed all of the glycerol more was added and the culture continued converting glycerol to 1,3-propanediol.
# [2] = substrate: OCCCO; assay: PDD kinetics, partially purified 1,3-propanediol dehydrogenase from wild type strain 33429; format: biochemical, Escherichia blattae ATCC 33429; settings: other: PDD of wild type strain 33429; substrate 1,3-propanediol; 30.0 °C
# Experimental: as §1, §2, §3, §4, §5
# [3] = substrate: NC(=O)c1ccc[n+]([C@@H]2O[C@H](COP(=O)([O-])OP(=O)(O)OC[C@H]3O[C@@H](n4cnc5c(N)ncnc54)[C@H](O)[C@@H]3O)[C@@H](O)[C@H]2O)c1; assay: as above; format: biochemical, Escherichia blattae ATCC 33429; settings: other: PDD of wild type strain 33429; cofactor NAD; 30.0 °C
# Experimental: as §1, §2, §3, §4, §5
# T1 sequence (Q3ZL59 entry or part of it H105L): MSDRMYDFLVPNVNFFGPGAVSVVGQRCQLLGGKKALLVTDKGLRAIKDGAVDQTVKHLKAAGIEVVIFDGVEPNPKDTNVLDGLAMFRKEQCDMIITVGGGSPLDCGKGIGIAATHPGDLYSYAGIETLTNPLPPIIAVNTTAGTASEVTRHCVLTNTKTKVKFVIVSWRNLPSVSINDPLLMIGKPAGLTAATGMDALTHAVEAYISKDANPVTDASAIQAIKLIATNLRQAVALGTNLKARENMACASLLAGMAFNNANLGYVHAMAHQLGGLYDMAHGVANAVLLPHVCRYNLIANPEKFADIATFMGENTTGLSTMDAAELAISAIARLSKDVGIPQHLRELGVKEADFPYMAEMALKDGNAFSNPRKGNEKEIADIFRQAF
molecule,measurement,setting,value
"OCCCO [1,3-propanediol]","Km for 1,3-propanediol",[1],higher
"O=CCCO [3HPA, 3-hydroxy-propionaldehyde]",toxicity of accumulated 3HPA (plate counts),wild-type E. blattae,toxic
B1,Km,[2],28 mM
same,Km,[3],0.057 mM
